Laboratory results taken from patent US20210261512A1, “NOVEL COMPOUNDS” (INFLAZOME LIMITED, priority 2018, published 2021).

What was measured:
[1] = PK, intravenous administration; type: in vivo; conditions: rat, plasma, male Sprague Dawley rats, dose about 1 mg/kg; for Vd: read-out: Vdss
Description: Pharmacokinetic parameters were determined in male Sprague Dawley rats (Vital River Laboratory Animal Technology Co Ltd, Beijing, China, 6-9 weeks old). Animals were maintained under a 12 h light/dark cycle. Animals had free access to food and water, except that orally dosed animals were food deprived overnight prior to the study.
For intravenous administration, compounds were formulated as a solution (in DMSO:water [10:90] or in DMSO:PBS [10:90]) in 2 mL/kg dosing volume and administered via tail vein. For oral administration, compounds were formulated as a solution (in 0.5% methylcellulose in water) in […] dosing volume and administered orally.
Serial blood samples (about 200 μL) were taken from each animal at each of 8 time-points post dose ([…], 0.25, 0.5, 1, 2, 4, 8 and 24 h). Samples were held on ice for no longer than 30 minutes before centrifugation (5,696 rpm (3,000 g) for 15 minutes) for plasma generation. Plasma was frozen on dry ice prior to bioanalysis. PK parameters were generated from LC-MS/MS data using Phoenix WinNonlin 6.3 software.

NLRP3 = NLRP3 (Homo sapiens, UniProt Q96P20); experiment: THP-1 cells pyroptosis assay; type: cell-based; parameters: Seed THP-1 cells (25,000 cells/well) containing 1.0 μg/ml LPS; host or cells: THP-1; conditions: LPS 1.0 μg/ml, nigericin 5 μM, resazurin readout, 10 μM top dose (Example 2: top dose of 30 μM)
NLRP3, sequence (Q96P20 whole entry): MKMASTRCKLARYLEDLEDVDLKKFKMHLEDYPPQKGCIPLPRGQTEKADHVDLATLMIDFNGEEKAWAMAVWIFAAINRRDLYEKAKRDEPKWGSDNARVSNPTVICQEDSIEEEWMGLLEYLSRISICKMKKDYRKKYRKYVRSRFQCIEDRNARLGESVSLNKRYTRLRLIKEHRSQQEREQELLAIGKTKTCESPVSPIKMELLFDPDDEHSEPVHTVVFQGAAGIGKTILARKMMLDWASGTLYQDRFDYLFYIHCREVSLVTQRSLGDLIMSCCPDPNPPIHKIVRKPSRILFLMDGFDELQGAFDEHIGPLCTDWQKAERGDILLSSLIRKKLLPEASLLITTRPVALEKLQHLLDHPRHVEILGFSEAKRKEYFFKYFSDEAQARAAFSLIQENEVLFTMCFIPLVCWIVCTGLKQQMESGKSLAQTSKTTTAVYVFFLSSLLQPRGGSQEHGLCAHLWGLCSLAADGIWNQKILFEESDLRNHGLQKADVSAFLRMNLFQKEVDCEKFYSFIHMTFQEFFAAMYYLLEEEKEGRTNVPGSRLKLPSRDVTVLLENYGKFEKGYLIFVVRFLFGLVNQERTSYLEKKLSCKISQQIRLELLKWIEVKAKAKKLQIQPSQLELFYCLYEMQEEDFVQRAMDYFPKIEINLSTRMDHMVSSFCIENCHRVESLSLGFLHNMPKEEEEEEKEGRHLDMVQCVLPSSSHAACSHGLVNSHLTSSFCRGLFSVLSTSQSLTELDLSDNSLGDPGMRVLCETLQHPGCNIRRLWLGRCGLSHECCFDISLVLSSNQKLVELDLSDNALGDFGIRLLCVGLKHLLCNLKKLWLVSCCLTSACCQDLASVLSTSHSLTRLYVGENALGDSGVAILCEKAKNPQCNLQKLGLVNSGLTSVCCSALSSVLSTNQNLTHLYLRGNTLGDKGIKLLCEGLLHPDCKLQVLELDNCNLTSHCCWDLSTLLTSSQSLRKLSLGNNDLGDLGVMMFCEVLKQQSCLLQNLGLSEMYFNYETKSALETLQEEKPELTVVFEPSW
In short: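 THP-1 cells (25,000/well) primed with 1 μg/ml LPS in serum-free RPMI, treated with compound (8-point dilution, 10 μM top unless stated; 0.1% DMSO) 3 h at 37°C, then nigericin 5 μM 1 h. Viability read by resazurin (100 μM, 1-2 h) fluorescence; IC50 from 4-parameter fit.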

AUC [1] [ng·h/mL]	clearance [1] [mL/min/kg]	half-life [1] [min]	Vd [1] [L/kg]	IC50 (NLRP3) [µM]	Molecule
2250	6.9	55.8	0.38	≤ 5	Cn1cc(S(=O)(=O)c2nnc(Nc3c4c(cc5c3CCC5)CCC4)[nH]2)cn1 [Example 159, N-(1,2,3,5,6,7-hexahydro-s-indacen-4-yl)-5-((1-methyl-1H-pyrazol-4-yl)sulfonyl)-4H-1,2,4-triazol-3-amine]
315	52.9	35.4	1.7	≤ 0.5	CN1CCOCC12CCN(S(=O)(=O)c1nnc(Nc3c4c(cc5c3CCC5)CCC4)[nH]1)CC2 [Example 296, N-(1,2,3,5,6,7-hexahydro-s-indacen-4-yl)-5-((1-methyl-4-oxa-1,9-diazaspiro[5.5]undecan-9-yl)sulfonyl)-4H-1,2,4-triazol-3-amine]
221	75.4	27.5	1.45	≤ 5	COc1cc(-c2ccc3c(c2Nc2nnc(S(=O)(=O)c4ccccc4C#N)[nH]2)CCC3)ccn1 [Example 310, 2-((5-((5-(2-methoxypyridin-4-yl)-2,3-dihydro-1H-inden-4-yl)amino)-4H-1,2,4-triazol-3-yl)sulfonyl)benzonitrile]
–	–	–	–	≤ 5	Cc1cc2c(c(Nc3nnc(S(C)(=O)=O)[nH]3)c1-c1ccnc(OC3CCOCC3)c1)CCC2 [Example 364, N-(6-methyl-5-(2-((tetrahydro-2H-pyran-4-yl)oxy)pyridin-4-yl)-2,3-dihydro-1H-inden-4-yl)-5-(methylsulfonyl)-4H-1,2,4-triazol-3-amine]
–	–	–	–	≤ 5	Cc1cc2c(c(Nc3nnc(S(C)(=O)=O)[nH]3)c1-c1ccnc(O[C@H]3CC[C@H](N(C)C)CC3)c1)CCC2 [Example 365, N-(5-(2-(((1r,4r)-4-(dimethylamino)cyclohexyl)oxy)pyridin-4-yl)-6-methyl-2,3-dihydro-1H-inden-4-yl)-5-(methylsulfonyl)-4H-1,2,4-triazol-3-amine]
–	–	–	–	≤ 5	O=S(=O)(c1cccc(OC(F)(F)F)c1)c1nnc(Nc2c3c(cc4c2CCC4)CCC3)[nH]1 [Example 367, N-(1,2,3,5,6,7-hexahydro-s-indacen-4-yl)-5-((3-(trifluoromethoxy)phenyl)-sulfonyl)-4H-1,2,4-triazol-3-amine]
–	–	–	–	≤ 5	COc1cc(-c2ccc3c(c2Nc2nnc(S(=O)(=O)c4ccccc4)[nH]2)CCC3)ccn1 [Example 372, N-(5-(2-methoxypyridin-4-yl)-2,3-dihydro-1H-inden-4-yl)-5-(phenylsulfonyl)-1H-1,2,4-triazol-3-amine]
–	–	–	–	≤ 10	CCN(CC)CCS(=O)(=O)Cc1nnc(Nc2c3c(cc4c2CCC4)CCC3)[nH]1 [Example 373, 5-(((2-(diethylamino)ethyl)sulfonyl)methyl)-N-(1,2,3,5,6,7-hexahydro-s-indacen-4-yl)-4H-1,2,4-triazol-3-amine]

More lines, now with the values behind:

Molecule	AUC [1] [ng·h/mL]	clearance [1] [mL/min/kg]	half-life [1] [min]	Vd [1] [L/kg]	IC50 (NLRP3) [µM]
O=S(=O)(c1ccccc1)c1nnc(Nc2c3c(cc4c2CCC4)CCC3)[nH]1 [Example 40, N-(1,2,3,5,6,7-hexahydro-s-indacen-4-yl)-5-(phenylsulfonyl)-1H-1,2,4-triazol-3-amine]	1460	11.4	54	0.54	≤ 1
CN1CCC2(C1)CN(S(=O)(=O)c1nnc(Nc3c(-c4ccnc(OC(F)F)c4)ccc4c3CCC4)[nH]1)C2 [Example 213, N-(5-(2-(difluoromethoxy)pyridin-4-yl)-2,3-dihydro-1H-inden-4-yl)-5-((6-methyl-2,6-diazaspiro[3.4]octan-2-yl)sulfonyl)-4H-1,2,4-triazol-3-amine]	186	90.6	43.8	4.21	≤ 0.5
CN1CCC(Oc2cc(-c3ccc4c(c3Nc3nnc(S(C)(=O)=O)[nH]3)CCC4)ccn2)CC1 [Example 235, N-(5-(2-((1-methylpiperidin-4-yl)oxy)pyridin-4-yl)-2,3-dihydro-1H-inden-4-yl)-5-(methylsulfonyl)-4H-1,2,4-triazol-3-amine]	430	38.7	130	0.935	≤ 10
CS(=O)(=O)c1nnc(Nc2c(-c3ccnc(OC4CCCOC4)c3)ccc3c2CCC3)[nH]1 (stereo not shown) [Example 236, 5-(methylsulfonyl)-N-(5-(2-((tetrahydro-2H-pyran-3-yl)oxy)pyridin-4-yl)-2,3-dihydro-1H-inden-4-yl)-4H-1,2,4-triazol-3-amine]	3160	5.28	53.5	0.149	≤ 10
Cc1cc(-c2cc(F)cc(C(C)C)c2Nc2nnc(S(=O)(=O)N3CCC(N(C)C)CC3)[nH]2)ccn1 [Example 302, 1-((5-((4-fluoro-2-isopropyl-6-(2-methylpyridin-4-yl)phenyl)amino)-1H-1,2,4-triazol-3-yl)sulfonyl)-N,N-dimethylpiperidin-4-amine]	153	109	80.4	4.03	≤ 5
CC(C)n1ccc(S(=O)(=O)c2nnc(Nc3c4c(cc5c3CCC5)CCC4)[nH]2)n1 [Example 337, N-(1,2,3,5,6,7-hexahydro-s-indacen-4-yl)-5-((1-isopropyl-1H-pyrazol-3-yl)sulfonyl)-4H-1,2,4-triazol-3-amine]	981	17	35.7	0.54	≤ 0.5
CN1CCCC(COc2cc(-c3ccc4c(c3Nc3nnc(S(C)(=O)=O)[nH]3)CCC4)ccn2)C1 (stereo not shown) [Example 359, N-(5-(2-((1-methylpiperidin-3-yl)methoxy)pyridin-4-yl)-2,3-dihydro-1H-inden-4-yl)-5-(methylsulfonyl)-4H-1,2,4-triazol-3-amine]	–	–	–	–	≤ 5
COc1cc(-c2ccc3c(c2Nc2nnc(S(C)(=O)=O)[nH]2)CCC3)ccn1 [Example 361, N-(5-(2-methoxypyridin-4-yl)-2,3-dihydro-1H-inden-4-yl)-5-(methylsulfonyl)-4H-1,2,4-triazol-3-amine]	–	–	–	–	≤ 10
Cc1cc2c(c(Nc3nnc(S(C)(=O)=O)[nH]3)c1-c1ccnc(OCC3CCCN(C)C3)c1)CCC2 (stereo not shown) [Example 362, N-(6-methyl-5-(2-((1-methylpiperidin-3-yl)methoxy)pyridin-4-yl)-2,3-dihydro-1H-inden-4-yl)-5-(methylsulfonyl)-4H-1,2,4-triazol-3-amine]	–	–	–	–	≤ 5
COCC(C)Oc1cc(-c2c(C)cc3c(c2Nc2nnc(S(C)(=O)=O)[nH]2)CCC3)ccn1 (stereo not shown) [Example 363, N-(5-(2-((1-methoxypropan-2-yl)oxy)-pyridin-4-yl)-6-methyl-2,3-dihydro-1H-inden-4-yl)-5-(methylsulfonyl)-4H-1,2,4-triazol-3-amine]	–	–	–	–	≤ 5
Cc1cc2c(c(Nc3nnc(S(C)(=O)=O)[nH]3)c1-c1ccnc(OC3CCNCC3)c1)CCC2 [Example 368, N-(6-methyl-5-(2-(piperidin-4-yloxy)pyridin-4-yl)-2,3-dihydro-1H-inden-4-yl)-5-(methylsulfonyl)-4H-1,2,4-triazol-3-amine]	–	–	–	–	≤ 5
CC(C)c1cc(F)cc(-c2ccnc(OC3CCN(C)CC3)c2)c1Nc1nnc(S(C)(=O)=O)[nH]1 [Example 369, N-(4-fluoro-2-isopropyl-6-(2-((1-methylpiperidin-4-yl)oxy)pyridin-4-yl)phenyl)-5-(methylsulfonyl)-4H-1,2,4-triazol-3-amine]	–	–	–	–	≤ 5
CNS(=O)(=O)c1nnc(Nc2c3c(cc4c2CCC4)CCC3)[nH]1 [Example 371, 5-((1,2,3,5,6,7-hexahydro-s-indacen-4-yl)amino)-N-methyl-4H-1,2,4-triazole-3-sulfonamide]	–	–	–	–	≤ 5
(E)-1-(8-((5-((4-(dimethylamino)piperidin-1-yl)sulfonyl)-4H-1,2,4-triazol-3-yl)amino)-1,2,3,5,6,7-hexahydro-s-indacen-4-yl)ethan-1-one oxime and (Z)-1-(8-((5-((4-(dimethylamino)piperidin-1-yl)sulfonyl)-4H-1,2,4-triazol-3-yl)amino)-1,2,3,5,6,7-hexahydro-s-indacen-4-yl)ethan-1-one oxime [Example 309]	–	–	–	–	≤ 5
